From patent publication US20240140957A1, “BRIDGED COMPOUNDS AS KRAS G12D INHIBITOR AND DEGRADER AND THE USE THEREOF” (BeiGene Switzerland GmbH, priority 2021, published 2024)

Target: GDP-loaded KRAS G12D (Homo sapiens, UniProt P01116, G12D)
Assay: KRAS G12D Probe Displacement Assay
Assay type: binding
Conditions: KRAS G12D 0.5 nM, biotinylated probe 2 4 nM; Table 6 letters; read-out: KRAS G12D Probe Displacement Assay IC50 (class)

Chain of GDP-loaded KRAS G12D (P01116 1-188 isoform P01116-2 G12D): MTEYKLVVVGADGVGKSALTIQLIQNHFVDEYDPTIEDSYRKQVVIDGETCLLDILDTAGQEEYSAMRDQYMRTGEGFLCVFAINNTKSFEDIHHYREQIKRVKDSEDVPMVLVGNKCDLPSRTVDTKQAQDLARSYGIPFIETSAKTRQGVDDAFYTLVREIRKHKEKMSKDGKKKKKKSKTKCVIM

SMILES: Cc1cc(N)nc(-c2c(C(F)F)cc3c(N4CC5CCC(C4)N5)nc(OC[C@@]45CCCN4C[C@H](F)C5)nc3c2F)c1C(F)(F)F [Example E100, 6-(4-(3,8-diazabicyclo[3.2.1]octan-3-yl)-6-(difluoromethyl)-8-fluoro-2-(((2R,7aS)-2-fluorotetrahydro-1H-pyrrolizin-7a(5H)-yl)methoxy)quinazolin-7-yl)-4-methyl-5-(trifluoromethyl)pyridin-2-amine]
- IC50: < 50 nM

SMILES: Nc1nc2c(-c3c(C(F)(F)F)cc4c(N5C6CCC5CNC6)nc(OC[C@@]56CCCN5C[C@H](F)C6)nc4c3Cl)ccc(F)c2s1 [Example E101, 4-(4-(3,8-diazabicyclo[3.2.1]octan-8-yl)-8-chloro-2-(((2R,7aS)-2-fluorotetrahydro-1H-pyrrolizin-7a(5H)-yl)methoxy)-6-(trifluoromethyl)quinazolin-7-yl)-7-fluorobenzo[d]thiazol-2-amine]
- IC50: < 50 nM

SMILES: Nc1cc(Cl)c(C(F)(F)F)c(-c2c(Cl)cc3c(N4C5CCC4CNC5)nc(OC[C@@]45CCCN4C[C@H](F)C5)nc3c2F)n1 [Example E102, 6-(4-(3,8-diazabicyclo[3.2.1]octan-8-yl)-6-chloro-8-fluoro-2-(((2R,7aS)-2-fluorotetrahydro-1H-pyrrolizin-7a(5H)-yl)methoxy)quinazolin-7-yl)-4-chloro-5-(trifluoromethyl)pyridin-2-amine]
- IC50: < 50 nM

SMILES: CN1C[C@H](F)C[C@]1(C)COc1nc(N2CC3CCC(C2)N3)c2cc(C(F)(F)F)c(-c3ccc(F)c4sc(N)nc34)c(F)c2n1 [Example E103, 4-(4-(3,8-diazabicyclo[3.2.1]octan-3-yl)-8-fluoro-2-(((2R,4R)-4-fluoro-1,2-dimethylpyrrolidin-2-yl)methoxy)-6-(trifluoromethyl)quinazolin-7-yl)-7-fluorobenzo [d]thiazol-2-amine]
- IC50: < 50 nM

SMILES: N#Cc1c(N)sc2c(F)ccc(-c3c(C(F)(F)F)cc4c(N5CC6CCC(C5)N6)nc(OC[C@@]56CCCN5C[C@H](F)C6)nc4c3F)c12 [Example E104, 4-(4-(3,8-diazabicyclo[3.2.1]octan-3-yl)-8-fluoro-2-(((2R,7aS)-2-fluorotetrahydro-1H-pyrrolizin-7a(5H)-yl)methoxy)-6-(trifluoromethyl)quinazolin-7-yl)-2-amino-7-fluorobenzo[b]thiophene-3-carbonitrile]
- IC50: < 50 nM

SMILES: Oc1cc(Cl)c(C(F)(F)F)c(-c2c(Cl)cc3c(N4CC5CCC(C4)N5)nc(OC[C@@]45CCCN4C[C@H](F)C5)nc3c2F)c1 [Example E105, 3-(4-(3,8-diazabicyclo[3.2.1]octan-3-yl)-6-chloro-8-fluoro-2-(((2R,7aS)-2-fluorotetrahydro-1H-pyrrolizin-7a(5H)-yl)methoxy)quinazolin-7-yl)-5-chloro-4-(trifluoromethyl)phenol]
- IC50: < 50 nM

SMILES: N#Cc1c(N)sc2c(F)ccc(-c3c(Cl)cc4c(N5CC6CCC(C5)N6)nc(OC[C@@]56CCCN5C[C@H](F)C6)nc4c3F)c12 [Example E106, 4-(4-(3,8-diazabicyclo[3.2.1]octan-3-yl)-6-chloro-8-fluoro-2-(((2R,7aS)-2-fluorotetrahydro-1H-pyrrolizin-7a(5H)-yl)methoxy)quinazolin-7-yl)-2-amino-7-fluorobenzo[b]thiophene-3-carbonitrile]
- IC50: < 50 nM

SMILES: Nc1cc(Cl)c(C(F)(F)F)c(-c2c(Cl)cc3c(N4C5CNCC4COC5)nc(OC[C@@]45CCCN4C[C@H](F)C5)nc3c2F)n1 [Example E107, 6-(4-(3-oxa-7,9-diazabicyclo[3.3.1]nonan-9-yl)-6-chloro-8-fluoro-2-(((2R,7aS)-2-fluorotetrahydro-1H-pyrrolizin-7a(5H)-yl)methoxy)quinazolin-7-yl)-4-chloro-5-(trifluoromethyl)pyridin-2-amine]
- IC50: < 50 nM

SMILES: C#Cc1cc(N)nc(-c2c(Cl)cc3c(N4CC5CCC(C4)N5)nc(OC[C@@]45CCCN4C[C@H](F)C5)nc3c2F)c1C(F)(F)F [Example E108, 6-(4-(3,8-diazabicyclo[3.2.1]octan-3-yl)-6-chloro-8-fluoro-2-(((2R,7aS)-2-fluorotetrahydro-1H-pyrrolizin-7a(5H)-yl)methoxy)quinazolin-7-yl)-4-ethynyl-5-(trifluoromethyl)pyridin-2-aminp]
- IC50: < 50 nM

SMILES: N#Cc1cc(N)nc(-c2c(Cl)cc3c(N4CC5CCC(C4)N5)nc(OC[C@@]45CCCN4C[C@H](F)C5)nc3c2F)c1C(F)(F)F [Example E109, 2-(4-(3,8-diazabicyclo[3.2.1]octan-3-yl)-6-chloro-8-fluoro-2-(((2R,7aS)-2-fluorotetrahydro-1H-pyrrolizin-7a(5H)-yl)methoxy)quinazolin-7-yl)-6-amino-3-(trifluoromethyl)isonicotinonitrile]
- IC50: < 50 nM

SMILES: Oc1cc(F)c(C(F)(F)F)c(-c2c(F)cc3c(N4CC5CCC(C4)N5)nc(OC[C@@]45CCCN4C[C@H](F)C5)nc3c2F)c1 [Example E110, 3-(4-(3,8-diazabicyclo[3.2.1]octan-3-yl)-6,8-difluoro-2-(((2R,7aS)-2-fluorotetrahydro-1H-pyrrolizin-7a(5H)-yl)methoxy)quinazolin-7-yl)-5-fluoro-4-(trifluoromethyl)phenol]
- IC50: < 50 nM

SMILES: CN1C[C@H](F)C[C@H]1COc1nc(N2CC3CCC(C2)N3)c2cc(C(F)(F)F)c(-c3ccc(F)c4sc(N)c(C#N)c34)c(F)c2n1 [Example E111, 4-(4-(3,8-diazabicyclo[3.2.1]octan-3-yl)-8-fluoro-2-(((2S,4R)-4-fluoro-1-methylpyrrolidin-2-yl)methoxy)-6-(trifluoromethyl)quinazolin-7-yl)-2-amino-7-fluoro benzo[b]thiophene-3-carbonitrile]
- IC50: < 50 nM

SMILES: Cc1nc(N)nc(-c2c(Cl)cc3c(N4CC5CCC(C4)N5)nc(OC[C@@]45CCCN4C[C@H](F)C5)nc3c2F)c1C(F)(F)F [Example E112, 4-(4-(3,8-diazabicyclo[3.2.1]octan-3-yl)-6-chloro-8-fluoro-2-(((2R,7aS)-2-fluorotetrahydro-1H-pyrrolizin-7a(5H)-yl)methoxy)quinazolin-7-yl)-6-methyl-5-(trifluoromethyl)pyrimidin-2-amine]
- IC50: < 50 nM

SMILES: C#Cc1cc(N)nc(-c2c(Cl)cc3c(N4C5CCC4CNC5)nc(OC[C@@]45CCCN4C[C@H](F)C5)nc3c2F)c1C(F)(F)F [Example E113, 6-(4-(3,8-diazabicyclo[3.2.1]octan-8-yl)-6-chloro-8-fluoro-2-(((2R,7aS)-2-fluorotetrahydro-1H-pyrrolizin-7a(5H)-yl)methoxy)quinazolin-7-yl)-4-ethynyl-5-(trifluoromethyl)pyridin-2-amine]
- IC50: < 50 nM

SMILES: Cc1cc(O)cc(-c2c(Cl)cc3c(N4CC5CCC(C4)N5)nc(OC[C@@]45CCCN4C[C@H](F)C5)nc3c2F)c1C(F)(F)F [Example E114, 3-(4-(3,8-diazabicyclo[3.2.1]octan-3-yl)-6-chloro-8-fluoro-2-(((2R,7aS)-2-fluorotetrahydro-1H-pyrrolizin-7a(5H)-yl)methoxy)quinazolin-7-yl)-5-methyl-4-(trifluoromethyl)phenol]
- IC50: < 50 nM

SMILES: C[C@@H](CN1C2CCC1CC(C#N)C2)Oc1nc(N2CC3CCC(C2)N3)c2cc(Cl)c(-c3ccc(F)c4sc(N)c(C#N)c34)c(F)c2n1 (stereo partly drawn) [Example E115, 8-((2S)-2-((7-(2-amino-3-cyano-7-fluorobenzo[b]thiophen-4-yl)-4-(3,8-diazabicyclo[3.2.1]octan-3-yl)-6-chloro-8-fluoroquinazolin-2-yl)oxy)propyl)-8-azabicyclo [3.2.1]octane-3-carbonitrile]
- IC50: < 50 nM

SMILES: C[C@@H](CN1CCC(F)CC1)Oc1nc(N2CC3CCC(C2)N3)c2cc(Cl)c(-c3ccc(F)c4sc(N)c(C#N)c34)c(F)c2n1 [Example E116, 4-(4-(3,8-diazabicyclo[3.2.1]octan-3-yl)-6-chloro-8-fluoro-2-(((S)-1-(4-fluoropiperidin-1-yl)propan-2-yl)oxy)quinazolin-7-yl)-2-amino-7-fluorobenzo[b]thiophene-3-carbonitrile]
- IC50: < 50 nM

SMILES: Cc1cc(N)nc(-c2cc3nc(OC[C@@]45CCCN4C[C@H](F)C5)nc(N4CC5CCC(C4)N5)c3cc2Cl)c1C(F)(F)F [Example E117, 6-(4-(3,8-diazabicyclo[3.2.1]octan-3-yl)-6-chloro-2-(((2R,7aS)-2-fluorotetrahydro-1H-pyrrolizin-7a(5H)-yl)methoxy)quinazolin-7-yl)-4-methyl-5-(trifluoromethyl)pyridin-2-amine]
- IC50: < 50 nM

SMILES: Cc1cc(N)c(C#N)c(-c2c(Cl)cc3c(N4CC5CCC(C4)N5)nc(OC[C@@]45CCCN4C[C@H](F)C5)nc3c2F)c1I [Example E118, 2-(4-(3,8-diazabicyclo[3.2.1]octan-3-yl)-6-chloro-8-fluoro-2-(((2R,7aS)-2-fluorotetrahydro-1H-pyrrolizin-7a(5H)-yl)methoxy)quinazolin-7-yl)-6-amino-3-iodo-4-methylbenzonitrile]
- IC50: < 50 nM

SMILES: Cc1cc(N)nc(-c2c(C#N)cc3c(N4CC5CCC(C4)N5)nc(OC[C@@]45CCCN4C[C@H](F)C5)nc3c2F)c1C(F)(F)F [Example E119, 7-(6-amino-4-methyl-3-(trifluoromethyl)pyridin-2-yl)-4-(3,8-diazabicyclo [3.2.1]octan-3-yl)-8-fluoro-2-(((2R,7aS)-2-fluorotetrahydro-1H-pyrrolizin-7a(5H)-yl)methoxy) quinazoline-6-carbonitrile]
- IC50: < 50 nM

SMILES: Cc1cc2[nH]ncc2c(-c2c(Cl)cc3c(N4CC5CCC(C4)N5)nc(OC[C@@]45CCCN4C[C@H](F)C5)nc3c2F)c1Cl [Example E120, 4-(3,8-diazabicyclo[3.2.1]octan-3-yl)-6-chloro-7-(5-chloro-6-methyl-1H-indazol-4-yl)-8-fluoro-2-(((2R,7aS)-2-fluorotetrahydro-1H-pyrrolizin-7a(5H)-yl)methoxy)quinazoline]
- IC50: < 50 nM

SMILES: CN1CCCC1(CC#N)COc1nc(N2CC3CCC(C2)N3)c2cc(C(F)(F)F)c(-c3ccc(F)c4sc(N)nc34)c(F)c2n1 (stereo not shown) [Example E121, 2-(2-(((7-(2-amino-7-fluorobenzo[d]thiazol-4-yl)-4-(3,8-diazabicyclo[3.2.1]octan-3-yl)-8-fluoro-6-(trifluoromethyl)quinazolin-2-yl)oxy)methyl)-1-methylpyrrolidin-2-yl)acetonitrile]
- IC50: < 50 nM
